Measurements reported in patent publication US5164406A, “Method for enhancing transdermal penetration and compositions useful therein” (priority 1989, dated 1992).
Counter-ions that a name gives are not always drawn. Like-named read-outs stand apart in the source and are kept apart here.

Columns and labels:
[1] = Protocol: Polyoxyethylene stearyl ethers, 3 wt. %
Polyoxypropylene fatty alcohol ethers, 3 wt. %
Deionized water, 94 wt. %
Further, in all cases, unless otherwise noted, the tests were carried out at 37° C. and results were compared to penetration data for the same material in the oil/water emulsion base. Moreover, all percentages of composition components recited are, unless otherwise indicated, weight percent (wt. %) and are based upon the total weight of the composition.
The test method is carried out as follows:
A. Prior to testing, rats are routinely acclimated to the laboratory environment for seven days and gross observations are made to ensure good health of the animals to be tested.
B. Female Sprague Dawley rats (190-240 gm) are selected for testing and identified by cage label and ear tag number.
C. Diffusion Cell Preparation.
1. An O-ring is placed on a standard Franz Diffusion Cell. A stir bar is placed in the receptor compartment. Each cell is filled with approximately 4.5 ml sterile physiologic saline (receptor compartments are calibrated to contain 5.0 ml).
2. The jacketed diffusion cells are maintained at 37° C.±1° (or alternatively desired temperature) using an external water bath and a circulating pump.
D. Skin Section Preparation and Mounting
1. Test animals are sacrificed by intraperitoneal injection of 0.4 ml/100 gm. body weight sodium pentobarital (1 gm/ml).
2. The backs are lightly shaved using electric hair clippers.
3. A section of skin, measuring approximately 8 cm long by 7 cm wide, is removed from the back of each rat using a No. 20 scalpel assuring that the skin section is free from subcutaneous fat.
4. A piece of the skin section is mounted over an O-ring on the diffusion cell, epidermal side facing up. The donor compartment is placed on top of the skin section making a complete seal over the skin. A clamp is used to secure the skin section in place.
5. Air bubbles that collect under the skin are removed by inverting the diffusion cell and tapping it gently. The receptor compartment is filled with sterile physiologic saline to 5.0 ml.
E. Application of Test Materials
1. Test and control materials are applied to the skin using s syringe or spatula. The material is spread evenly and completely over the exposed skin surface using the tip of the syringe/spatula.
1. An HPLC carousel is loaded with microvials. Springs and inserts are placed into the microvials.
2. Receptor compartments are sampled at desired time intervals using a microliter (μl) syringe. The sample (approximately 160 μl) is placed into the insert. The microvial is sealed with a plastic cap.
3. When multiple sampling is required, the receptor compartment is replenished with sterile physiologic saline to maintain a 5.0 ml volume.
Samples are analyzed using standard analytical techniques. The presence of test material in the samples is indicative of transdermal penetration.

[2] = Pig skin (in vitro) transdermal penetration; format: in vitro ADME, Yucatan miniature pig; settings: 0.5% IMI in saturated aqueous TPL solution
Protocol: The test procedure is as described for rat skin studies with the exception that excised pig skin samples from Yucatan miniature pigs are utilized.
To address this issue, in vitro skin penetration of tripelennamine (TPL) in 2 saturated aqueous solutions, was measured using pig skin in accordance with the Pig Skin (in vitro) procedure earlier outlined. One solution contained 0.5% IMI. The other solution served as an aqueous control (buffered with NaOH to the same pH as the IMI containing solution).
Since all skin sections are dermatomed to 380 microns, h is a constant. In each composition of Table 5, the vehicle was saturated with the pharmacologic agent. Therefore, the "leaving tendency", or the thermodynamic activity of the pharmacologic agent in the vehicle, remained unchanged (K is the same for both compositions). this means that D must increase in order to explain the 3-fold increase in transdermal penetration. This is indicative of a true enhancement effect of topically applied IMI. The results of Table 5, substantiate that IMI acts as a true skin penetration enhancer. […] This may be one reason why use of a transdermal penetration enhancing amount of a selected imidazole or imidazole derivative of the present invention, in conjunction with a pharmacologically active agent whose transdermal penetration is capable of being enhanced, affords the advantageous enhancement of penetration achieved by the present invention.

COc1ccc2c(c1)[C@]13CCCC[C@@H]1[C@H](C2)N(C)CC3 [DEX, DEXTRO[…], HBR, reference compound]
24 hour penetration (total micrograms base) ([1]; B + 2% DEX + 0.5% IPM + 0.5% IMI, Table 3 Study VIII): 360 micrograms base | 24 hour penetration (total micrograms base) ([1]; control: 2% of the drug alone in B, Table 3): 124 micrograms base | Increase in penetration relative to control ([1]; multiple of average control determination, B + 2% DEX + 0.5% IPM + 0.5% IMI, Table 3 Study VIII): 2.9

NS(=O)(=O)c1cc2c(cc1Cl)NCNS2(=O)=O [HCTZ, HYDROCHLOROTHIAZIDE, reference compound]
24 hour penetration (total micrograms base) [1]: 1.7 micrograms base | Imidazole enhanced the transdermal penetration (fold) ([1]; 5% HCTZ with 1% imidazole, Table 3 Study IX): five

CC(C)Cc1ccc(C(C)C(=O)O)cc1 (centres unmarked) [IBU, IBUPROFEN, reference compound]
24 hour penetration (total micrograms base) ([1]; B + 5% drug + 0.5% imidazole (IMI), Table 3): 378.0 micrograms base | 24 hour penetration (total micrograms base) ([1]; control: 5% of the drug alone in B, Table 3): 181.5 micrograms base | Increase in penetration relative to control ([1]; multiple of average control determination, B + 5% drug + 0.5% IMI, Table 3): 2.1

c1c[nH]cn1 [IMIDAZOLE, imidazole]
24 hour penetration of tripelennamine HCl (total micrograms base) ([1]; 2% TPL in B + 0.01% imidazole): 208 micrograms base | 24 hour penetration of tripelennamine HCl (total micrograms base) ([1]; 2% TPL in B + 0.1% imidazole): 413 micrograms base | 24 hour penetration of tripelennamine HCl (total micrograms base) ([1]; 2% TPL in B + 1.0% imidazole): 662 micrograms base | TPL penetration increased as compared to the control ([1]; 2% TPL in B, imidazole up to 1.0%, Table 1): approximately 340% | Increase in penetration relative to control ([1]; multiple of average control determination, 2% TPL in B + 0.01% imidazole): 1.1 | Increase in penetration relative to control ([1]; multiple of average control determination, 2% TPL in B + 0.1% imidazole): 2.1 | Increase in penetration relative to control ([1]; multiple of average control determination, 2% TPL in B + 1.0% imidazole): 3.4 | Increase in skin permeation of TPL [2]: 3 fold

CC(C)NCC(O)c1cc(O)cc(O)c1 (centres unmarked) [MET, METAPROTERENOL SULFATE, reference compound]
24 hour penetration (total micrograms base) [1]: 47.6 micrograms base

Cn1cc[nH]c1=S [METHIMIDAZOLE, methimazole, reference compound]
24 hour penetration of tripelennamine HCl (total micrograms base) [1]: 301 micrograms base | Increase in penetration relative to control [1]: 3.5

NCCCn1ccnc1 [N-(3-AMINOPROPYL) IMIDAZOLE, N-(3-aminopropyl)imidazole]
24 hour penetration of tripelennamine HCl (total micrograms base) [1]: 457 micrograms base | Increase in penetration relative to control [1]: 2.5

CCC(=O)n1ccnc1 [N-PROPIONYL IMIDAZOLE]
24 hour penetration of tripelennamine HCl (total micrograms base) [1]: 453 micrograms base | Increase in penetration relative to control [1]: 2.5

O=C(/C=C/c1ccccc1)n1ccnc1 [N-TRANS-CINNAMOYL]
24 hour penetration of tripelennamine HCl (total micrograms base) [1]: 153 micrograms base | Increase in penetration relative to control [1]: 1.8

c1ccc2c(CC3=NCCN3)cccc2c1 [NAP, NAPHAZOLINE HCL, reference compound]
24 hour penetration (total micrograms base) [1]: 161 micrograms base | Penetration enhanced by imidazole [1]: 480%

CNC[C@H](O)c1cccc(O)c1 [PHE, PHENYLEPHRINE HCL, reference compound]
24 hour penetration (total micrograms base) [1]: 266 micrograms base

Cc1ccc(/C(=C\CN2CCCC2)c2ccccn2)cc1 [TRP, TRIPROLIDINE HCL, reference compound]
24 hour penetration (total micrograms base) [1]: 180 micrograms base
